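Cultured in 96-well plates, cells were exposed to test compound for 48 hours across five concentrations. GI50 is the concentration that inhibits growth by half.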 Active and inactive are the calls of the source. No stated cut-off is given here; in the data, active = GI50 up to about 1.1 µM and inactive = higher.
Tests used:
Assay in all cases: NCI anticancer screen, dose series, 48 h
RXF 393 = system: RXF 393
NCI-H522 = system: NCI-H522
OVCAR-3 = system: OVCAR-3
M19-MEL = system: M19-MEL
HOP-62 = system: HOP-62
DMS-273 = system: DMS-273
DLD-1 = system: DLD-1
SF-295 = system: SF-295
Malme-3M = system: Malme-3M
A549 = system: A549
KM-20L2 = system: KM-20L2
M14 = system: M14
HCT-15 = system: HCT-15
OVCAR-8 = system: OVCAR-8
RPMI-8226 = system: RPMI-8226

Row | SMILES | GI50 (RXF 393) | GI50 (NCI-H522) | GI50 (OVCAR-3) | GI50 (M19-MEL) | GI50 (HOP-62) | GI50 (DMS-273) | GI50 (DLD-1) | GI50 (SF-295) | GI50 (Malme-3M) | GI50 (A549) | GI50 (KM-20L2) | GI50 (M14) | GI50 (HCT-15) | GI50 (OVCAR-8) | GI50 (RPMI-8226)
1 | CC(=O)O[C@H]1C=CC(=O)C(C)CC1C (some centres not stated) | 42.6 µM (inactive) | 37.9 µM (inactive) | > 100 µM (inactive) | > 100 µM (inactive) | > 100 µM (inactive) | > 100 µM (inactive) | 64 µM (inactive) | > 100 µM (inactive) | > 100 µM (inactive) | > 100 µM (inactive) | > 100 µM (inactive) | > 100 µM (inactive) | – | – | –
2 | COc1ccccc1CC(C)N (configuration not stated) | > 100 µM (inactive) | > 100 µM (inactive) | > 100 µM (inactive) | – | > 100 µM (inactive) | > 100 µM (inactive) | > 100 µM (inactive) | > 100 µM (inactive) | > 100 µM (inactive) | > 100 µM (inactive) | > 100 µM (inactive) | > 100 µM (inactive) | > 100 µM | > 100 µM (inactive) | > 100 µM (inactive)
3 | CCN(CC)CC1CCCCCCCCCCC1=O (configuration not stated) | – | > 100 µM (inactive) | > 100 µM (inactive) | > 100 µM (inactive) | > 100 µM (inactive) | > 100 µM (inactive) | > 100 µM (inactive) | > 100 µM (inactive) | > 100 µM (inactive) | > 100 µM (inactive) | > 100 µM (inactive) | > 100 µM (inactive) | > 100 µM | > 100 µM (inactive) | > 100 µM (inactive)
4 | CCCCS(=O)(=O)Nc1ccc(Nc2c3ccccc3nc3ccccc23)c(OC)c1 | 4.39 µM (inactive) | 5.33 µM (inactive) | 6.98 µM (inactive) | 4.61 µM (inactive) | 1.86 µM (inactive) | 0.395 µM (active) | 7.6 µM (inactive) | 0.902 µM (active) | 2.21 µM (inactive) | 0.232 µM (active) | 3.14 µM (inactive) | – | 1.71 µM | 2 µM (inactive) | 1.74 µM (inactive)
5 | O=C(NCCCOC(=O)CCCCCCCCC(=O)OCCCNC(=O)NC(=O)c1c[nH]c(=O)[nH]c1=O)NC(=O)c1c[nH]c(=O)[nH]c1=O | – | – | > 100 µM (inactive) | > 100 µM (inactive) | > 100 µM (inactive) | > 100 µM (inactive) | > 100 µM (inactive) | > 100 µM (inactive) | > 100 µM (inactive) | > 100 µM (inactive) | > 100 µM (inactive) | > 100 µM (inactive) | > 100 µM | > 100 µM (inactive) | > 100 µM (inactive)
